One may read the IC50 as the concentration at which inhibition is half-maximal.

The subject of assay [1] is GP2D cells. The assay is described as follows: Ras cellular assay, growth of cells with K-Ras G12D mutation (CellTiter-Glo). To be noted: cell growth, Example 9, G12D mutation, read-out: IC50 against GP2D cells. Type of assay: cell-based. (ATP-based viability assays read luminescence as a measure of living cells.)
Assay [2] deals with SW620 cells. The assay can be described thus: Ras cellular assay, growth of cells with K-Ras G12V mutation (CellTiter-Glo). Type of assay: cell-based. The following applies: Homo sapiens, SW-620; cell growth, Example 9, G12V mutation; read-out: IC50 against SW620 cells. Summed up: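 SW620 (K-Ras G12V) cells, e.g. 800/well in RPMI-1640 with 10% heat-inactivated FBS on standard or ultra-low attachment plates, were dosed the day after plating with e.g. a 10-point 3-fold series. Viability by CellTiter-Glo luminescence about 6 days later; IC50 from four-parameter fit.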

The target of assay [3] is T1, K-Ras G12D (Homo sapiens, UniProt P01116, G12D).
T1 construct: made in house; host or cells: E. coli BL21 (DE3)
The assay is described as follows: HTRF resonance energy transfer assay, K-Ras G12D / SOS1 interaction. In kind it is biochemical. To be noted: HTRF assay of Example 5; read-out: IC50 against K-Ras G12D. Summed up:
(§1)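 Read-out: HTRF 665/620 nm ratio (excitation 337 nm) after roughly 10 min or longer incubation, used to derive IC50. Donor anti-GST-Eu on GST-K-Ras; acceptor anti-6His-XL665 on His-hSOS1. Duplicate dose series from 10 μM down to 0.01 μM.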
Background: In TR-FRET formats the signal depends on donor and acceptor labels being close together.

The target of assay [4] is T2, K-Ras G12S (Homo sapiens, UniProt P01116, G12S).
T2 construct: made in house; host or cells: E. coli BL21 (DE3)
The assay is described as follows: HTRF resonance energy transfer assay, K-Ras G12S / SOS1 interaction. In kind it is biochemical. The following applies: HTRF assay of Example 5; read-out: IC50 against K-Ras G12S. Summed up: as §1

For assay [5], the target named is T3, K-Ras G12V (Homo sapiens, UniProt P01116, G12V).
T3 construct: made in house; host or cells: E. coli BL21 (DE3)
The assay is described as follows: HTRF resonance energy transfer assay, K-Ras G12V / SOS1 interaction. In kind it is biochemical. To be noted: HTRF assay of Example 5; read-out: IC50 against K-Ras G12V. The procedure, abridged: as §1

In assay [6] the target is T4, K-Ras WT (Homo sapiens, UniProt P01116).
T4 construct: made in house; host or cells: E. coli BL21 (DE3)
The assay is described as follows: HTRF resonance energy transfer assay, K-Ras WT / SOS1 interaction. In kind it is biochemical. To be noted: HTRF assay of Example 5; read-out: IC50 against K-Ras WT. The procedure, abridged: as §1

T1 sequence (P01116 1-188 isoform P01116-2 G12D): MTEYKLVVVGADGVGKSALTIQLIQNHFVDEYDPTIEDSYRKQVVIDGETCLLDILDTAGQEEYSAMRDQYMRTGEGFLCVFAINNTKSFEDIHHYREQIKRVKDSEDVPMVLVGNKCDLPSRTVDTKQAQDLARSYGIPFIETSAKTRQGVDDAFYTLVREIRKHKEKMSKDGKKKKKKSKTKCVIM
T2 sequence (P01116 1-188 isoform P01116-2 G12S): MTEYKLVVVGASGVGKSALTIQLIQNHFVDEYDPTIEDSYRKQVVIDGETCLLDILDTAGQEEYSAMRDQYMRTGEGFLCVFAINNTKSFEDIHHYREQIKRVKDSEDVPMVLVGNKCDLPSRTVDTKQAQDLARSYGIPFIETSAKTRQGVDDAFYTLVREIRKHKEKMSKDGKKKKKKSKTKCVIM
T3 sequence (P01116 1-188 isoform P01116-2 G12V): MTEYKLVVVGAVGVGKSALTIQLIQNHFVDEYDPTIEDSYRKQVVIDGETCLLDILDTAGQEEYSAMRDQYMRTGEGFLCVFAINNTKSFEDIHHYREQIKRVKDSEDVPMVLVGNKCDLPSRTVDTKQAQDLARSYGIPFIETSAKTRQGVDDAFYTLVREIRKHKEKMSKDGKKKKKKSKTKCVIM
T4 sequence (P01116 1-188 isoform P01116-2): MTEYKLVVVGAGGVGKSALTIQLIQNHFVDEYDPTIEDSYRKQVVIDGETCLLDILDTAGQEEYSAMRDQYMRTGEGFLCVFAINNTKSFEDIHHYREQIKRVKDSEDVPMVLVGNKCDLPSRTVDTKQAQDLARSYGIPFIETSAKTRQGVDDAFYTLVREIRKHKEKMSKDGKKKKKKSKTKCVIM

`C=C[C@H]1COc2c(Cl)c(-c3ccc(F)c4sc(N)c(C#N)c34)c(F)c3nc(OC[C@@]45CCCN4C[C@H](F)C5)nc(c23)N1CCC(F)F` (single isomer, unassigned) [Compound 727]: the values for the IC50 in assay [1] and in assay [2] were below 500 nM and below 5000 nM, respectively.

`N#Cc1c(N)sc2c(F)ccc(-c3c(Cl)c4c5c(nc(OC[C@@]67CCCN6C[C@H](F)C7)nc5c3F)N(C3CCOC3)[C@@H](C3(F)CC3)CO4)c12` (single isomer, unassigned) [Compound 772]: the IC50 in assay [3] was below 100 nM; in assay [4] it was below 100 nM; in assay [5], below 100 nM; in assay [6], below 100 nM; in assay [1], below 500 nM; in assay [2], below 5000 nM.

Consider `C=C[C@H]1COc2c(Cl)c(-c3ccc(F)c4sc(N)c(C#N)c34)c(F)c3nc(OC[C@@]45CCCN4C[C@H](F)C5)nc(c23)N1C1CCOC1` (single isomer, unassigned) [Compound 980], for which the IC50 in assay [3] is below 100 nM; in assay [4], below 100 nM; in assay [5], below 100 nM; in assay [6] it was below 100 nM; in assay [1] it was below 500 nM; in assay [2] it was below 5000 nM.

In the case of `CN(C)C1(CN2CCOc3c(Cl)c(-c4ccc(F)c5sc(N)c(C#N)c45)c(F)c4nc(OC[C@@]56CCCN5C[C@H](F)C6)nc2c34)CCC1` [Compound 606, 2-amino-4-(8-chloro-4-((1-(dimethylamino)cyclobutyl)methyl)-10-fluoro-2-(((2R,7aS)-2-fluorotetrahydro-1H-pyrrolizin-7a(5H)-yl)methoxy)-5,6-dihydro-4H-[1,4]oxazepino[5,6,7-de]quinazolin-9-yl)-7-fluorobenzo[b]thiophene-3-carbonitrile], the IC50 was below 100 nM in assay [3]; below 100 nM in assay [4]; below 100 nM in assay [5]; below 100 nM in assay [6]; below 500 nM in assay [1]; below 5000 nM in assay [2].

For `COCCN1c2nc(OC[C@@]34CCCN3C[C@H](F)C4)nc3c(F)c(-c4ccc(F)c5sc(N)c(C#N)c45)c(Cl)c(c23)OC[C@@H]1CNC=O` [Compound 607, N-(((5S)-9-(2-amino-3-cyano-7-fluorobenzo[b]thiophen-4-yl)-8-chloro-10-fluoro-2-(((2R,7aS)-2-fluorotetrahydro-1H-pyrrolizin-7a(5H)-yl)methoxy)-4-(2-methoxyethyl)-5,6-dihydro-4H-[1,4]oxazepino[5,6,7-de]quinazolin-5-yl)methyl)formamide], the IC50 in assay [3] is below 100 nM; in assay [4], below 100 nM; in assay [5], below 100 nM; in assay [6], below 100 nM; in assay [1] it was below 500 nM; in assay [2] it was below 5000 nM.

On to `N#Cc1c(N)sc2c(F)ccc(-c3c(Cl)c4c5c(nc(OC[C@@]67CCCN6C[C@H](F)C7)nc5c3F)N(CCC(F)F)[C@@H](CNC=O)CO4)c12` [Compound 614, N-(((5S)-9-(2-amino-3-cyano-7-fluorobenzo[b]thiophen-4-yl)-8-chloro-4-(3,3-difluoropropyl)-10-fluoro-2-(((2R,7aS)-2-fluorotetrahydro-1H-pyrrolizin-7a(5H)-yl)methoxy)-5,6-dihydro-4H-[1,4]oxazepino[5,6,7-de]quinazolin-5-yl)methyl)formamide], for which the IC50 is below 100 nM in assay [3]; below 100 nM in assay [4]; below 100 nM in assay [5]; below 100 nM in assay [6]; below 500 nM in assay [1]; below 5000 nM in assay [2].

Take `N#Cc1c(N)sc2c(F)ccc(-c3c(Cl)c4c5c(nc(OC[C@@]67CCCN6C[C@H](F)C7)nc5c3F)N[C@@H](C(F)F)CO4)c12` [Compound 618, 2-amino-4-((R)-8-chloro-5-(difluoromethyl)-10-fluoro-2-(((2R,7aS)-2-fluorotetrahydro-1H-pyrrolizin-7a(5H)-yl)methoxy)-5,6-dihydro-4H-[1,4]oxazepino[5,6,7-de]quinazolin-9-yl)-7-fluorobenzo[b]thiophene-3-carbonitrile]: the 50% inhibitory concentration (IC50) in assay [3] is below 100 nM; in assay [4], below 100 nM; in assay [5], below 100 nM; in assay [6], below 100 nM; in assay [1], below 500 nM; in assay [2] it was below 5000 nM.

As to `N#Cc1c(N)sc2c(F)ccc(-c3c(Cl)c4c5c(nc(OC[C@@]67CCCN6C[C@H](F)C7)nc5c3F)N(CCC(F)F)[C@@H](C3CC3)CO4)c12` [Compound 668, 2-amino-4-((S)-8-chloro-5-cyclopropyl-4-(3,3-difluoropropyl)-10-fluoro-2-(((2R,7aS)-2-fluorotetrahydro-1H-pyrrolizin-7a(5H)-yl)methoxy)-5,6-dihydro-4H-[1,4]oxazepino[5,6,7-de]quinazolin-9-yl)-7-fluorobenzo[b]thiophene-3-carbonitrile], the IC50 is below 100 nM in assay [3]; below 100 nM in assay [4]; below 100 nM in assay [5]; below 100 nM in assay [6]; below 500 nM in assay [1]; below 5000 nM in assay [2].

As for `C#C[C@H]1COc2c(Cl)c(-c3ccc(F)c4sc(N)c(C#N)c34)c(F)c3nc(OC[C@@]45CCCN4C[C@H](F)C5)nc(c23)N1CC(F)F` [Compound 730, 2-amino-4-((5S)-8-chloro-4-(2,2-difluoroethyl)-5-ethynyl-10-fluoro-2-(((2R,7aS)-2-fluorotetrahydro-1H-pyrrolizin-7a(5H)-yl)methoxy)-5,6-dihydro-4H-[1,4]oxazepino[5,6,7-de]quinazolin-9-yl)-7-fluorobenzo[b]thiophene-3-carbonitrile], the IC50 in assay [1] is below 500 nM; in assay [2] it was below 5000 nM.

Turning to `C[C@H]1COc2c(Cl)c(-c3ccc(F)c4sc(N)c(C#N)c34)c(F)c3nc(OC[C@@]45CCCN4C[C@H](F)C5)nc(c23)N1CC(F)F` [Compound 1088, 2-amino-4-((5S)-8-chloro-4-(2,2-difluoroethyl)-10-fluoro-2-(((2R,7aS)-2-fluorotetrahydro-1H-pyrrolizin-7a(5H)-yl)methoxy)-5-methyl-5,6-dihydro-4H-[1,4]oxazepino[5,6,7-de]quinazolin-9-yl)-7-fluorobenzo[b]thiophene-3-carbonitrile], the IC50 in assay [4] was below 100 nM; in assay [5] it was below 100 nM; in assay [6], below 100 nM; in assay [1] it was below 500 nM; in assay [2] it was below 5000 nM.

As to `N#Cc1c(N)sc2c(F)ccc(-c3c(Cl)c4c5c(nc(OC[C@@]67CCCN6C[C@H](F)C7)nc5c3F)N(CC(F)F)[C@@H](C3CC3C#N)CO4)c12` (stereo partly drawn) [Compound 1109, 2-amino-4-((5S)-8-chloro-5-(2-cyanocyclopropyl)-4-(2,2-difluoroethyl)-10-fluoro-2-(((2R,7aS)-2-fluorotetrahydro-1H-pyrrolizin-7a(5H)-yl)methoxy)-5,6-dihydro-4H-[1,4]oxazepino[5,6,7-de]quinazolin-9-yl)-7-fluorobenzo[b]thiophene-3-carbonitrile], the IC50 is below 500 nM in assay [1] and below 5000 nM in assay [2].

Values taken from patent publication US12209102B2, “Heterocyclic compounds and uses thereof” (Kumquat Biosciences Inc., priority 2022, dated 2025).
